Series [1] in a line: Pharmacokinetics in male SD rats after intravenous and oral administration. The series is classed as in vivo. The method, then:
Preparation of test compound solution: The test compound was formulated with 5% dimethylsulfoxide, 5% Solutol HS 15 and 90% physiological saline to give solution, which was used for oral and intravenous administration.
Male SD rats weighing 190-250 g were randomly divided into two groups, each group had three members; one group received test compound at a dose of 1.0 mg/kg by intravenous injection, the other group received test compound at a dose of 2.5 or 5.0 mg/kg by oral. After dosing, blood samples were collected at time points of 0.0833, 0.25, 0.5, 1.0, 2.0, 4.0, 7.0 and 24 h. Standard curve was plotted based on concentrations of the samples in a suitable range, the concentrations of test compounds in plasma samples were determined by using AB SCIEX API4000 LC-MS/MS in MRM mode. Pharmacokinetic parameters were calculated according to drug concentration-time curve using a noncompartmental method by WinNonLin 6.3 software.

For series [2], the target named is T1, hERG potassium channel (Homo sapiens, UniProt Q12809).
T1 construct: expressed in transfected cells; host or cells: HEK293
T1 sequence (Q12809 whole entry): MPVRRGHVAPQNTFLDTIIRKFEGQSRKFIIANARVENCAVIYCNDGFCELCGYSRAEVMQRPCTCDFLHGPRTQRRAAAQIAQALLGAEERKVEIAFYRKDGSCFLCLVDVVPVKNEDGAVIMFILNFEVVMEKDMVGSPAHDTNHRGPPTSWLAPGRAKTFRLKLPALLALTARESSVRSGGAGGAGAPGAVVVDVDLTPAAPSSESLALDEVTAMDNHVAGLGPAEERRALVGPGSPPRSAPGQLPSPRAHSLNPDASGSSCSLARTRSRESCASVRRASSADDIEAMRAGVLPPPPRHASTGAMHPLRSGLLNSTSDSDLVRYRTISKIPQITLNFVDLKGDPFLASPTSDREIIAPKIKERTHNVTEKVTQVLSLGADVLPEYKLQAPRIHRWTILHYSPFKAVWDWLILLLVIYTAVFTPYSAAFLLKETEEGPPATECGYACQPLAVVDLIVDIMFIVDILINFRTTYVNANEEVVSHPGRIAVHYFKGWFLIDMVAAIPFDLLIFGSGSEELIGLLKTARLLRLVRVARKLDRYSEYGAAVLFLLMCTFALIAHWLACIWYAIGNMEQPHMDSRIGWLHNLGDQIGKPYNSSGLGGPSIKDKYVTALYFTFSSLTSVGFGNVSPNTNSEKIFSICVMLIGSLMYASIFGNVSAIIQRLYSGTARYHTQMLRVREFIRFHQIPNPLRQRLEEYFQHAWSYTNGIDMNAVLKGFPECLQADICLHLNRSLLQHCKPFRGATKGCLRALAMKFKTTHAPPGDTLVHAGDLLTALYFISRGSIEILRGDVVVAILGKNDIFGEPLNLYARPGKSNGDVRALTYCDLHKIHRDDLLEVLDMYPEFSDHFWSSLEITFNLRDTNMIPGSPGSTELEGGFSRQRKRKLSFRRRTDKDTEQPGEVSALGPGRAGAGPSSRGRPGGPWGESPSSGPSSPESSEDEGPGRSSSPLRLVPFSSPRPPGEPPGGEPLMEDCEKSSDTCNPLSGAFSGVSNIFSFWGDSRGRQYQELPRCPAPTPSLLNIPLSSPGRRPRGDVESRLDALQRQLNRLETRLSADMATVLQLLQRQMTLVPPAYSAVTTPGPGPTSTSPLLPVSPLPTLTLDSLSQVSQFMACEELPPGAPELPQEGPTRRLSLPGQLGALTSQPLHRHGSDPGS
In words: Inhibition of hERG potassium channel, manual patch clamp in HEK293 cells. The class given is cell-based. The following applies: hERG tail current; HEK293 cells overexpressing hERG; whole cell patch clamp; 22-24° C. As for the experimental part: Each compound was weighed and dissolved in DMSO and diluted with DMSO to a serial solution (30, 10, 3.3, 1.1, 0.37 mM). The above serial solutions were diluted to 1000-fold with the extracellular fluid to prepare test solutions (final concentration was 30, 10, 3.3, 1.1, 0.37 μM respectively).
The HEK293 cells that overexpressed the hERG potassium channel were cultured in a 37° C., 5% CO2 incubator, and the culture medium contained DMEM, 15% fetal bovine serum, and 1% penicillin-streptomycin. When the cell density reached 80% of the culture plate, the cells were digested with trypsin/EDTA and transferred to a centrifuge tube, centrifuged at 1000 rpm for 3 minutes, then supernatant was discarded, and the cell culture medium was added. The cells were mixed uniformly by gently blowing and beating. […]
The whole cell recording mode was used to record the channel current in the experiment. Firstly, the extracellular fluid was perfused (approximately 2 mL per minute) and the data were continuous recorded, and the current was kept steady (the current decay was less than 5% in 5 minutes). […] The extracellular fluid containing the test compound was then perfused and the data were continuous recorded until the compound's inhibitory effect on the hERG current reached a steady state, at this time point the peak value of tail current was the current value after dosing. […]
On the technique in general: Block of hERG is tested as a sign of cardiac risk.

Molecules are shown by their SMILES.

The compound `COC(=O)Nc1c(N)nc(-c2nn(Cc3ccccc3F)c3cc(F)ccc23)nc1N` [Example 5, methyl (4,6-diamino-2-(6-fluoro-1-(2-fluorobenzyl)-1H-indazol-3-yl)pyrimidin-5-yl)carbamate] registered a F in series [1] (po 5 mg/kg versus iv 1 mg/kg) of 93.4%. Further, in series [1] (rat, plasma, iv, 1 mg/kg), the area under the curve AUC(0-t) (as a rule, exposure summed from dosing to a finite time, without extrapolation to infinity) amounted to 10300 ng·h/mL; the highest level (Cmax) was 2820 ng/mL; the Tmax (commonly the time from dosing to the highest level) was determined as 0.083 h; the clearance turned out to be 1.59 mL/min/kg. The half-life (in general, how long it takes for the measured level to halve) in series [1] (rat, plasma, iv, 1 mg/kg) was 4.49 h. Also, in series [1] (rat, plasma, iv, 1 mg/kg, read-out: Vss), the Vd was found to be 0.483 L/kg. Further, in series [1] (rat, plasma, po, 5 mg/kg), the AUC(0-t) was 39700 ng·h/mL, the Cmax (usually the peak of the concentration-time curve) came to 2690 ng/mL, the time of peak concentration (Tmax) was found to be 3.5 h and the half-life is 10.9 h. In addition, the IC50 (commonly the midpoint of a concentration-inhibition curve) in series [2] was above 30 µM.

The values above are taken from patent US11242335B2, “Fluorine-substituted indazole compounds and uses thereof” (SUNSHINE LAKE PHARMA CO., LTD., priority 2017, dated 2022).
